The source of these data is ChEMBL document CHEMBL1125482, “Pharmacokinetics of catechol cephalosporins. The effect of incorporating substituents into the catechol moiety on pharmacokinetics in a marmoset model” (J Med Chem, 1992).

Structures are written as SMILES. Values after ≈ are worked out from the molar mass of the structure shown.

The nature of one data set: in vivo. Particulars: callithrix, serum, iv.
Data set [1] deals with Enterobacter cloacae. In words: microbe, parasite or virus in culture.
Description: Compound was tested for antimicrobial activity against Enterobacter cloacae inducible type I beta-lactamase producer (P99-) strain
A further data set is filed under the species Canis familiaris. Conditions: dog, in vivo, iv.
Data set [2] deals with Enterobacter cloacae. The data set can be described thus: microbe, parasite or virus in culture. This is another data set of the same source.
Description: Compound was tested for antimicrobial activity against Enterobacter cloacae constitutive derepressed type I beta-lactamase producer (P99+) strain
The test system of data set [3] is Escherichia coli. In words: microbe, parasite or virus in culture.
Description: Compound was tested for antimicrobial activity against Escherichia coli DC2 strain (permeability mutant)
The test system of data set [4] is Mus musculus. The data set can be described thus: Compound was evaluated in vivo for antibacterial activity against Pseudomonas aeruginosa (strain 101010) in mice; range 1.0-6.0 mg/Kg. Type of data set: functional.
The subject of data set [5] is Staphylococcus aureus. The data set can be described thus: microbe, parasite or virus in culture.
Description: Compound was tested for antimicrobial activity against Staphylococcus aureus Oxford strain
Data set [6] relates to Staphylococcus aureus. In words: microbe, parasite or virus in culture. The source holds these as a separate data set.
Description: Compound was tested for antimicrobial activity against Staphylococcus aureus penicillin sensitive Staphylococcus aureus (147N) strain
For data set [7], the system named is Pseudomonas aeruginosa. The data set can be described thus: microbe, parasite or virus in culture.
Description: Compound was tested for antimicrobial activity against Pseudomonas aeruginosa PU21 strain
For data set [8], the system named is Escherichia coli. In words: microbe, parasite or virus in culture. This is another data set of the same source.
Description: Compound was tested for antimicrobial activity against Escherichia coli DC0 strain (parent organism)
In data set [9] the test system is Pseudomonas aeruginosa. The data set can be described thus: microbe, parasite or virus in culture. The source holds these as a separate data set.
For data set [10], the species on record is Homo sapiens. In words: Compound was tested for serum protein binding in human blood. Type of data set: functional.
In data set [11] the test system is Mus musculus. In words: Compound was evaluated in vivo for antibacterial activity against Pseudomonas aeruginosa (strain 101010) in mice. It is filed as functional. Particulars: read-out: PD50.
A short description of data set [12]: Urinary recovery in marmosets (IV dose). It is filed as ADME, organism-based. Conditions: callithrix, urine, read-out: Recovery.
In data set [13] the test system is Pseudomonas aeruginosa. The data set can be described thus: Compound was tested for antimicrobial activity against Pseudomonas aeruginosa constitutive derepressed type I beta-lactamase producer (18SH) strain. It is filed as functional.
The species named for data set [14] is Homo sapiens. The data set can be described thus: Compound is evaluated for serum protein binding in human blood […]. Type of data set: functional.

Description for in vivo: Serum T1/2 in marmosets (IV dose)
Description for physchem: Dissociation constant (pKa)

What is called half-life is how long it takes for the measured level to halve. A low value points to rapid decline. As for `CC(C)(O/N=C(\C(=O)N[C@@H]1C(=O)N2C(C(=O)[O-])=C(C[n+]3ccccc3)CS[C@H]12)c1csc(N)n1)C(=O)O` [CEFTAZIDIME], the half-life in “in vivo” was 0.7 h. For the same compound, the MIC against Enterobacter cloacae [1] is 0.125 µg/mL (≈ 0.229 µM); with Enterobacter cloacae [2] it was 32 µg/mL (≈ 58.5 µM); against Escherichia coli [3], 0.06 µg/mL (≈ 0.11 µM); against Staphylococcus aureus [5], 4 µg/mL (≈ 7.32 µM); against Staphylococcus aureus [6], 8 µg/mL (≈ 14.6 µM); in the data set with Pseudomonas aeruginosa [7], 1 µg/mL (≈ 1.83 µM). Also, the MIC was 0.125 µg/mL (≈ 0.229 µM) with Escherichia coli [8] and 16 µg/mL (≈ 29.3 µM) in the data set on Pseudomonas aeruginosa [9]. The AUC in the data set listed under Canis familiaris worked out at 14 mg/h/L. The PD50 with Mus musculus [4] stood at 1 µg/mL.
As usually defined, the pKa is the pH at which an ionisable group is half protonated. Lower therefore signals a group that gives up its proton readily. Take `CC(C)(O/N=C(\C(=O)N[C@@H]1C(=O)N2C(C(=O)O)=C(CNC(=O)c3cc(O)c(O)c(Br)c3)CS[C@H]12)c1csc(N)n1)C(=O)O`: the Activity in the data set listed under Homo sapiens [10] turned out to be 99.2%. In the data set “in vivo”, this compound gave a half-life of 2.9 h. The MIC against Enterobacter cloacae [1] is 0.03 µg/mL (≈ 0.0429 µM); in the data set with Enterobacter cloacae [2] it was 2 µg/mL (≈ 2.86 µM); in the data set on Staphylococcus aureus [5] it was 16 µg/mL (≈ 22.9 µM); in the data set on Staphylococcus aureus [6], 16 µg/mL (≈ 22.9 µM); against Pseudomonas aeruginosa [7], less than 0.008 µg/mL; against Pseudomonas aeruginosa [9], 0.015 µg/mL (≈ 0.0214 µM). Further, the AUC in the data set filed under Canis familiaris turned out to be 137.1 mg/h/L. Besides, the pKa in “physchem” was 6.9. Also, the ED50 with Mus musculus [11] stood at 0.024 mg/kg. In addition, the dose excreted in data set [12] turned out to be 13.9%.
`CC(C)(O/N=C(\C(=O)N[C@@H]1C(=O)N2C(C(=O)O)=C(CNC(=O)c3cc(Cl)c(O)c(O)c3Cl)CS[C@H]12)c1csc(N)n1)C(=O)O` came in with an Activity in the data set listed under Homo sapiens [10] of 98.7%. In addition, the half-life in “in vivo” was 8.2 h. In addition, the AUC in the data set listed under Canis familiaris came out at 461 mg/h/L. Moreover, the pKa in “physchem” was 6.3. The ED50 in the data set with Mus musculus [11] came out at 0.003 mg/kg. The dose excreted in data set [12] stood at 16.2%.
As to `CC(C)(O/N=C(\C(=O)N[C@@H]1C(=O)N2C(C(=O)O)=C(CNC(=O)c3ccc(O)c(O)c3)CS[C@H]12)c1csc(N)n1)C(=O)O`, the Activity in the data set listed under Homo sapiens [10] is recorded as 96.3%. The compound further gave a half-life in “in vivo” of 1.25 h. The MIC is 0.06 µg/mL (≈ 0.0967 µM) against Pseudomonas aeruginosa [13]; 0.0125 µg/mL (≈ 0.0201 µM) against Enterobacter cloacae [1]; 16 µg/mL (≈ 25.8 µM) with Enterobacter cloacae [2]; 0.008 µg/mL (≈ 0.0129 µM) against Escherichia coli [3]; 8 µg/mL (≈ 12.9 µM) in the data set on Staphylococcus aureus [5]; 16 µg/mL (≈ 25.8 µM) against Staphylococcus aureus [6]. Also, the MIC was 0.015 µg/mL (≈ 0.0242 µM) in the data set on Pseudomonas aeruginosa [7] and less than 0.008 µg/mL against Escherichia coli [8]. Moreover, the AUC in the data set listed under Canis familiaris was 27.2 mg/h/L. This compound also registered a pKa in “physchem” of 8.5. The dose excreted in [12] is 44.8%.
For the compound `CO/N=C(\C(=O)N[C@@H]1C(=O)N2C(C(=O)O)=C(CSc3nc(=O)c(O)nn3C)CS[C@H]12)c1csc(N)n1` [CEFTRIAXONE], in the data set listed under Homo sapiens [14], the Activity came out at 94.5%. Also, the dose excreted in data set [12] came out at 25.4%.
As for `CCn1cc(C(=O)NCC2=C(C(=O)O)N3C(=O)[C@@H](NC(=O)/C(=N\OC(C)(C)C(=O)O)c4csc(N)n4)[C@H]3SC2)c(=O)c2cc(O)c(O)cc21`, the Activity in the data set filed under Homo sapiens [10] is given as 99%. In addition, the half-life in the data set “in vivo” is 3.5 h. In addition, the MIC worked out at 0.06 µg/mL (≈ 0.0838 µM) with Enterobacter cloacae [1]; 0.25 µg/mL (≈ 0.349 µM) with Enterobacter cloacae [2]; 0.008 µg/mL (≈ 0.0112 µM) in the data set with Escherichia coli [3]; 16 µg/mL (≈ 22.4 µM) in the data set on Staphylococcus aureus [5]; 16 µg/mL (≈ 22.4 µM) with Staphylococcus aureus [6]; 0.06 µg/mL (≈ 0.0838 µM) in the data set with Pseudomonas aeruginosa [7]. Besides, the MIC with Escherichia coli [8] and in the data set on Pseudomonas aeruginosa [9] was less than 0.008 µg/mL throughout. In addition, the AUC in the data set filed under Canis familiaris was determined as 238.5 mg/h/L. The same compound registered a pKa in the data set “physchem” of 7.2. Further, in the data set with Mus musculus [11], the ED50 amounted to 0.01 mg/kg. Further, the dose excreted in data set [12] amounted to 17.5%.
`CC(C)(O/N=C(\C(=O)N[C@@H]1C(=O)N2C(C(=O)O)=C(CNC(=O)c3cc(O)c(O)c(Cl)c3)CS[C@H]12)c1csc(N)n1)C(=O)O`: the half-life in “in vivo” is 4.6 h. The compound further displayed an AUC in the data set filed under Canis familiaris of 638.3 mg/h/L. The pKa in the data set “physchem” was 7. Besides, the ED50 in the data set on Mus musculus [11] was determined as 0.004 mg/kg.
Compound `CC(C)(O/N=C(\C(=O)N[C@@H]1C(=O)N2C(C(=O)O)=C(CNC(=O)c3cc(O)c(O)c(C#N)c3)CS[C@H]12)c1csc(N)n1)C(=O)O` showed an Activity in the data set listed under Homo sapiens [10] of 96.7%. The half-life in the data set “in vivo” is 5.3 h. The AUC in the data set filed under Canis familiaris was determined as 394.5 mg/h/L. Also, in “physchem”, the pKa worked out at 5.5. Moreover, in the data set on Mus musculus [11], the ED50 came out at 0.013 mg/kg. Further, the dose excreted in data set [12] was found to be 8.7%.
